Source: BigSolDB 2.1

CC1(C)COP(=O)(Oc2cc(OP3(=O)OCC(C)(C)CO3)cc(OP3(=O)OCC(C)(C)CO3)c2)OC1
solubility (mole fraction)
Details | in 1,4-dioxane | in THF | in acetone | in acetonitrile | in chloroform | in dichloromethane | in ethanol | in methanol
288.15 K | 8.73e-05 | 0.000132 | 0.000453 | 0.000941 | 0.00551 | 0.00512 | 7.83e-05 | 0.000423
293.15 K | 9.57e-05 | 0.000138 | 0.000502 | 0.00109 | 0.00634 | 0.00589 | 9.43e-05 | 0.000496
298.15 K | 0.00011 | 0.000144 | 0.000568 | 0.00136 | 0.00713 | 0.00673 | 0.000111 | 0.000568
303.15 K | 0.000127 | 0.000149 | 0.000638 | 0.00158 | 0.00802 | 0.00779 | 0.00013 | 0.000648
308.15 K | 0.000139 | 0.000154 | 0.000718 | 0.00195 | 0.00921 | 0.00891 | 0.000156 | 0.000748
313.15 K | 0.000153 | 0.000158 | 0.000805 | 0.00238 | 0.0106 | – | 0.000192 | 0.000874
318.15 K | 0.000171 | 0.000162 | 0.000924 | 0.00289 | 0.0121 | – | 0.000225 | 0.000975
